The values below come from ChEMBL document CHEMBL1147058, “An antibiotic produced by an insect-pathogenic bacterium suppresses host defenses through phenoloxidase inhibition” (Proc Natl Acad Sci U S A, 2007).

The source made the active and inactive calls. No cut-off for these calls is given here.

For data set [1], the target named is T1, Prophenoloxidase (Manduca sexta) (UniProt Q0VJU6).
T1 sequence (whole entry): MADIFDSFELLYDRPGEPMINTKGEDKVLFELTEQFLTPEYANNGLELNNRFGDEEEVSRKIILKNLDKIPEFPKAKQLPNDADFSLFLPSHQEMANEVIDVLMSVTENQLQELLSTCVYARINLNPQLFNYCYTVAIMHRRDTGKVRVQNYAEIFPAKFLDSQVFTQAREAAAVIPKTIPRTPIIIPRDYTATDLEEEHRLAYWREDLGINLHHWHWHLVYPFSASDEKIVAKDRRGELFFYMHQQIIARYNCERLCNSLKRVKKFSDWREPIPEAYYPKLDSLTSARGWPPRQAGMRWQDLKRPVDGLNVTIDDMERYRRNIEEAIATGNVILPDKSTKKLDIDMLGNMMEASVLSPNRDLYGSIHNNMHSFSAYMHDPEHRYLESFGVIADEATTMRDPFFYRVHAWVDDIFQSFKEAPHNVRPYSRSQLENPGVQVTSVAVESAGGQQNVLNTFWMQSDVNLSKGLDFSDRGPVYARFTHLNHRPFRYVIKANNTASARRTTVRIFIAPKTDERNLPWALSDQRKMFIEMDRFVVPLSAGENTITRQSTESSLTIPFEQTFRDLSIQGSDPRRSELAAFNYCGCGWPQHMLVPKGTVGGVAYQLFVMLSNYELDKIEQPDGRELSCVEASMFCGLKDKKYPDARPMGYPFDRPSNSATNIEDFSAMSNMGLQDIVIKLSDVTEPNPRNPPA
As to the kind of experiment: Inhibition of Manduca sexta phenoloxidase at 60 uM.

Another data set concerns Manduca sexta. As to the kind of experiment: Inhibition of immune system assessed as suppression of melanotic nodule formation in Photorhabdus luminescens TT01 infected Manduca sexta. The format is functional, organism-based.
Data set [2] concerns Photorhabdus luminescens. As to the kind of experiment: Induction of virulence of Photorhabdus luminescens TT01 assessed as decrease in survival of Photorhabdus luminescens TT01 infected Manduca sexta. The format is functional.
Data set [3] relates to Photorhabdus luminescens. As to the kind of experiment: Induction of virulence of Photorhabdus luminescens TT01 assessed as decrease in survival of Photorhabdus luminescens TT01 infected Manduca sexta in presence of cinnamic acid. Format: functional.
Data set [4] relates to Photorhabdus luminescens. As to the kind of experiment: Induction of virulence of Photorhabdus luminescens TT01 assessed as increase in proliferation of Photorhabdus luminescens TT01 in Manduca sexta. The format is functional.
The nature of data set [5]: Drug level in Photorhabdus luminescens TT01 infected Manduca sexta hemolymph after 24 hrs by TLC plate method. The format is ADME, tissue-based. As to conditions: read-out: Drug uptake.
The subject of data set [6] is Photorhabdus luminescens. As to the kind of experiment: Induction of virulence of Photorhabdus luminescens TT01 assessed as increase in proliferation of Photorhabdus luminescens TT01 in Manduca sexta in presence of cinnamic acid. The format is functional.
The test system of data set [7] is Photorhabdus luminescens. As to the kind of experiment: Induction of virulence of stlA deficient Photorhabdus luminescens BMM901 assessed as decrease in survival of Photorhabdus luminescens BMM901 infected Manduca sexta in presence of cinnamic acid. The format is functional.
Data set [8] concerns Photorhabdus luminescens. As to the kind of experiment: Induction of virulence of stlA deficient Photorhabdus luminescens BMM901 assessed as increase in proliferation of Photorhabdus luminescens BMM901 in Manduca sexta in presence of cinnamic acid. The format is functional.

Turning to `CC(C)c1c(O)cc(/C=C/c2ccccc2)cc1O` [TAPINAROF], the Activity entry in data set [1] was “Dose-dependent effect”. In addition, the result in the data set on Manduca sexta, with Photorhabdus luminescens [2], in the data set with Photorhabdus luminescens [3], with Photorhabdus luminescens [4], with Photorhabdus luminescens [6] and in the data set with Photorhabdus luminescens [7] was Active. Further, the result in the data set on Photorhabdus luminescens [8] was Active. The concentration at 24 h in data set [5] turned out to be 275 µg/mL.
